From US20260217701A1, “SELECTIVE BET INHIBITORS AND USES THEREOF” (Tay Therapeutics Limited, priority 2022, published 2026)
Several values for one entry are separate records, joined by “and”; a condition that tells them apart may be missing. Equal entries are not always repeated.

System: collagen-induced arthritis
Assay: Collagen-induced arthritis (CIA) model: clinical scores and paw volume; as to Average animal paw volume percent change (%): reference of the scale not given here; as to animal paw volume percent change (%): reference of the scale not given here
Assay type: in vivo, Lewis rats
Settings: for Average animal paw volume percent change (%) / Animal paw volume percent change (%) / Average animal paw volume: group 4 CIA + GSK620 (10 mg/kg); for Animal paw volume percent change (%) / clinical score left forelimb / clinical score left hind limb / clinical score right forelimb / clinical score right hind limb / clinical score, score (all limbs) / Animal paw volume: individual animals; for Animal paw volume: Group 4 (CIA + GSK620)
[1] = group 4 CIA + GSK620, 2nd section of table, 1st day (between Day 12 and Day 18)
[2] = group 4 CIA + GSK620, 2nd section of table, 2nd day (between Day 12 and Day 18)
[3] = group 4 CIA + GSK620, 2nd section of table, 3rd day (between Day 12 and Day 18)

With `CNC(=O)c1cc(C(=O)NC2CC2)cn(Cc2ccccc2)c1=O` [GSK620] the “Percent Inhibition in clinical score (Mean ± SD)” value (CIA rats, 10 mg/kg) was 37 ± 14%, the “Percent Inhibition in paw volume (Mean ± SD)” value (CIA rats, 10 mg/kg) was 28 ± 21% and the “Average animal paw volume percent change (%)” value (Day 0, L paw) was 0.00%. The “Animal paw volume percent change (%)” value (Day 0, L paw) was 0.00%, the “Average animal paw volume percent change (%)” value (Day 0, R paw) was 0.00% and the “Animal paw volume percent change (%)” value (Day 0, R paw) was 0.00%. The “Average overall clinical score” value (Day 0, CIA) was 0, the “clinical score left forelimb” value (Day 0, CIA) was 0 and the “clinical score left hind limb” value (Day 0, CIA) was 0. The “clinical score right forelimb” value (Day 0, CIA) was 0, the “clinical score right hind limb” value (Day 0, CIA) was 0 and the “clinical score, score (all limbs)” value (Day 0, CIA) was 0. For the same molecule, the “Average animal paw volume” value (Day 6, L paw) was 1.34 mL, the “Animal paw volume percent change (%)” value (Day 6, L paw, 10 mg/kg) was −0.39% and −0.73% and 0.36% and 0.00% (2×) and −0.37% and the “Average animal paw volume” value (Day 6, R paw) was 1.34 mL. For the same molecule, the “Average animal paw volume percent change (%)” value (Day 6, R paw) was 1.50%, the “Animal paw volume percent change (%)” value (Day 6, R paw, 10 mg/kg) was −0.39% and 0.00% (4×) and the “Average overall clinical score” value (Day 6, CIA) was 0. The “clinical score left forelimb” value (Day 6, CIA) was 0, the “clinical score left hind limb” value (Day 6, CIA) was 0 and the “clinical score right forelimb” value (Day 6, CIA) was 0. The “clinical score right hind limb” value (Day 6, CIA) was 0, the “clinical score, score (all limbs)” value (Day 6, CIA) was 0 and the “Average animal paw volume” value (Day 12, L paw) was 1.36 mL. For the same molecule, the “Animal paw volume percent change (%)” value (Day 12, L paw, 10 mg/kg) was 0.76% and 0.00% and 1.50%, the “Average animal paw volume” value (Day 12, R paw) was 1.37 mL and the “Average overall clinical score” value (Day 12, CIA) was 0. The “clinical score left forelimb” value (Day 12, CIA) was 0, the “clinical score left hind limb” value (Day 12, CIA) was 0 and the “clinical score right forelimb” value (Day 12, CIA) was 0. For the same molecule, the “clinical score right hind limb” value (Day 12, CIA) was 0, the “clinical score, score (all limbs)” value (Day 12, CIA) was 0 and the “Average animal paw volume” value (Day 13, L paw) was 1.38 mL. For the same molecule, the “Animal paw volume percent change (%)” value (Day 13, L paw, 10 mg/kg) was −0.73%, the “Average animal paw volume” value (Day 13, R paw) was 1.41 mL and the “Average detailed clinical score, right hind limb” value (Day 13, CIA) was 0.125. For the same molecule, the “Average detailed clinical score, score” value (Day 13, CIA) was 0.125, the “Average overall clinical score” value (Day 13, CIA) was 0 and the “clinical score left forelimb” value (Day 13, CIA) was 0. For the same molecule, the “clinical score left hind limb” value (Day 13, CIA) was 0, the “clinical score right forelimb” value (Day 13, CIA) was 0 and the “clinical score right hind limb” value (Day 13, CIA) was 0 (6×) and 1. The “clinical score, score (all limbs)” value (Day 13, CIA) was 0 (6×) and 1, the Animal paw volume (Day 13, L paw) was 1.40 mL and the Animal paw volume (Day 13, R paw) was 1.40 mL. For the same molecule, the “Animal paw volume percent change (%)” value (Day 14, L paw, 10 mg/kg) was −0.37%, the “Animal paw volume percent change (%)” value (Day 14, R paw, 10 mg/kg) was 4.40% and the “Average detailed clinical score, left hind limb” value (Day 14, CIA) was 0.875. For the same molecule, the “Average detailed clinical score, right hind limb” value (Day 14, CIA) was 1.125, the “Average overall clinical score” value (Day 14, CIA) was 2 and the “clinical score left forelimb” value (Day 14, CIA) was 0. The “clinical score left hind limb” value (Day 14, CIA) was 0 (4×) and 2 (2×) and 1, the “clinical score right forelimb” value (Day 14, CIA) was 0 and the “clinical score right hind limb” value (Day 14, CIA) was 0 (4×) and 2 (2×) and 3. The “clinical score, score (all limbs)” value (Day 14, CIA) was 0 (3×) and 4 and 3 (2×) and 2, the Animal paw volume (Day 14, L paw) was 1.40 mL and the “Average animal paw volume” value (Day 15, L paw) was 1.74 mL. For the same molecule, the “Animal paw volume percent change (%)” value (Day 15, R paw, 10 mg/kg) was 59.00%, the “Average detailed clinical score, left hind limb” value (Day 15, CIA) was 1.625 and the “Average detailed clinical score, score” value (Day 15, CIA) was 3.625. For the same molecule, the “Average overall clinical score” value (Day 15, CIA) was 4, the “clinical score left forelimb” value (Day 15, CIA) was 0 and the “clinical score left hind limb” value (Day 15, CIA) was 1 (2×) and 3 (3×) and 0 (2×). For the same molecule, the “clinical score right forelimb” value (Day 15, CIA) was 0, the “clinical score right hind limb” value (Day 15, CIA) was 1 and 3 (3×) and 0 (2×) and 4 and the “clinical score, score (all limbs)” value (Day 15, CIA) was 2 and 6 (3×) and 0 and 4 and 1. The Animal paw volume (Day 15, L paw) was 1.60 mL, the “Average overall clinical score” value (Day 18, CIA) was 7 and the “Average animal paw volume” value (Day 19, L paw) was 2.54 mL. For the same molecule, the “Animal paw volume percent change (%)” value (Day 19, L paw, 10 mg/kg) was 83.00% and 100.00%, the “Average overall clinical score” value (Day 19, CIA) was 8 and the Animal paw volume (Day 19, R paw) was 2.20 mL. For the same molecule, the “Average overall clinical score” value (Day 21, CIA) was 8, the “clinical score left forelimb” value [1] was 0 and the “clinical score left hind limb” value [1] was 0. For the same molecule, the “clinical score right forelimb” value [1] was 0, the “clinical score right hind limb” value [1] was 0 and the “clinical score, score (all limbs)” value [1] was 0. For the same molecule, the “clinical score left forelimb” value [2] was 0, the “clinical score left hind limb” value [2] was 2 and the “clinical score right forelimb” value [2] was 0. The “clinical score right hind limb” value [2] was 2, the “clinical score, score (all limbs)” value [2] was 4 and the “clinical score left forelimb” value [3] was 0. For the same molecule, the “clinical score left hind limb” value [3] was 2, the “clinical score right forelimb” value [3] was 0 and the “clinical score right hind limb” value [3] was 2. The “clinical score, score (all limbs)” value [3] was 4, the “clinical score left forelimb” value (group 4 CIA + GSK620, Day 18) was 0 and the “clinical score left hind limb” value (group 4 CIA + GSK620, Day 18) was 4 (7×) and 3. The “clinical score right forelimb” value (group 4 CIA + GSK620, Day 18) was 0, the “clinical score right hind limb” value (group 4 CIA + GSK620, Day 18) was 4 (6×) and 0 and 3 and the “clinical score, score (all limbs)” value (group 4 CIA + GSK620, Day 18) was 8 (6×) and 4 and 6. For the same molecule, the “clinical score left forelimb” value (group 4 CIA + GSK620, Day 19) was 1 (6×) and 0 (2×), the “clinical score left hind limb” value (group 4 CIA + GSK620, Day 19) was 4 (5×) and 3 (3×) and the “clinical score right forelimb” value (group 4 CIA + GSK620, Day 19) was 0 (6×) and 1 (2×). For the same molecule, the “clinical score right hind limb” value (group 4 CIA + GSK620, Day 19) was 4 (3×) and 3 (4×) and 0, the “clinical score, score (all limbs)” value (group 4 CIA + GSK620, Day 19) was 9 (2×) and 10 and 6 and 5 and 7 (2×) and 8 and the “clinical score left forelimb” value (group 4 CIA + GSK620, Day 20) was 1 (5×) and 2 and 0 (2×). The “clinical score left hind limb” value (group 4 CIA + GSK620, Day 20) was 4 (5×) and 3 (3×), the “clinical score right forelimb” value (group 4 CIA + GSK620, Day 20) was 0 (6×) and 1 (2×) and the “clinical score right hind limb” value (group 4 CIA + GSK620, Day 20) was 4 (3×) and 3 (4×) and 1. For the same molecule, the “clinical score, score (all limbs)” value (group 4 CIA + GSK620, Day 20) was 9 (2×) and 11 and 6 (2×) and 7 (2×) and 8.
